Experimental data as given in patent US7018981B2, “Cyclic motilin receptor antagonists” (Chugai Seiyaku Kabushiki Kaisha, priority 2000, dated 2006).
Where two headings read alike, the source gives them in different places. Where a SMILES comes first, the peptide text is derived from it. Bridges are numbered along the chain shown (N, C = ends). [ ]: non-standard residue; d: D form. Tyr(3-tBu) = CC(C)(C)c1cc(C[C@H](N)C(=O)O)ccc1O; Phe(4-F) = N[C@@H](Cc1ccc(F)cc1)C(=O)O; NMeK = CN[C@@H](CCCCN)C(=O)O; βAla = NCCC(=O)O

How the values were obtained:
[1] = amide bond, BOP, 25.0 °C
[2] = amide bond, 25.0 °C
motilin receptors = target: T1, motilin receptors (Oryctolagus cuniculus, UniProt G1T803); test: Motilin receptor binding test (125I motilin, rabbit duodenum protein solution); conditions: concentration inhibiting 50% of specific binding of 25 pM 125I motilin; rabbit duodenum homogenate, 2 hours at 25° C.
T1 construct: A protein solution was prepared by homogenizing the duodenum isolated from a killed rabbit; from tissue; host or cells: rabbit duodenum, mucosa stripped, homogenate
T1 sequence (G1T803 1-400): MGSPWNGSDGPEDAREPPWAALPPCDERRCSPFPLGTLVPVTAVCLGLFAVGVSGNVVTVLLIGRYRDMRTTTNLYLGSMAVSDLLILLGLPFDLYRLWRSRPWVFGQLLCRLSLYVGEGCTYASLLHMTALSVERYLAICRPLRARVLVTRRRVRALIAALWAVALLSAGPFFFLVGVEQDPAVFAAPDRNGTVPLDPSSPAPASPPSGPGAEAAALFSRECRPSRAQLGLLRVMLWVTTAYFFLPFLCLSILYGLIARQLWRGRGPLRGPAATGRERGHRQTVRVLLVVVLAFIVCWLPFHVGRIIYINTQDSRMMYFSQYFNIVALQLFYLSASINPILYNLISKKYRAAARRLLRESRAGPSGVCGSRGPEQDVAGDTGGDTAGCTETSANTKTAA
Procedure: Motilin receptor binding activities of compounds of the present invention were tested as follows [Vantrappen et al., Regul.
A protein solution was prepared by homogenizing the duodenum isolated from a killed rabbit in 50 mM Tris after stripping the mucosa. […] The difference between the radioactivity of the protein solution incubated alone and the radioactivity of the protein solution incubated with a large excess of motilin (10^−7 M) was recorded as specific binding of motilin to motilin receptors.

[3] = tested on: motilin-induced contraction of a sample of the longitudinal muscle of the duodenum; test: Contraction inhibition test: motilin-induced contraction of rabbit longitudinal duodenal muscle; assay type: cell-based; conditions: Oryctolagus cuniculus; concentration-dependent contraction induced by motilin; rabbit duodenal specimen in Krebs solution at 28° C.; read-out: Contraction inhibition test pA2 (converted)
Procedure: The effect of compounds of the present invention on motilin-induced contraction of a sample of the longitudinal muscle of the duodenum extracted from a rabbit was tested as follows.
A duodenal specimen (5×15 mm) extracted from a killed rabbit was suspended in the direction of the longitudinal muscle in an incubator at 28° C. filled with Krebs solution (10 ml organ bath). A mixed gas (95% O2, 5% CO2) was continuously passed through the Krebs solution and the contraction of the duodenal specimen was isotonically recorded (under a load of 1 g) via an isotonic transducer (ME-3407, ME Commercial, Tokyo, Japan). The extent of contraction of the duodenal specimen was expressed as a percentage to the contraction induced by acetylcholine at a concentration of 10^−4 M.
The effect of the compounds synthesized in Examples 1–8 and 10 on the concentration-dependent contraction induced by motilin added into the incubator was determined to calculate pA2 (see “Drug receptors” edited by Takayanagi, published by Nanzando). As a comparative example, the results of the compound of formula (5) are also shown.

[4] = 14-membered ring, BOP, DMF/pyridine 1:1, 9.9 mM, 2 steps

Q: With `CN1CCCC[C@H](N(C)C(=O)[C@H](Cc2ccc(F)cc2)NC(=O)OC(C)(C)C)C(=O)N[C@@H](Cc2ccc(O)c(C(C)(C)C)c2)C(=O)NCCC1=O` as the molecule, how does the ring closure, yield of all isomers ([1]; from CNCCCC[C@@H](C(=O)N[C@@H](Cc1ccc(O)c(C(C)(C)C)c1)C(=O)NCCC(=O)O)N(C)C(=O)[C@H](Cc1ccc(F)cc1)NC(=O)OC(C)(C)C, DMF, 10.5 mM, 16.0 h) read?
A: 36%

Q: Which ring closure, isolated yield ([2]; 14-membered ring, BOP, DMF/pyridine 1:1, 9.9 mM) does the source give for “(2S-(2S,13S))-N-(8-acetyl-2-(3-tert-butyl-4-hydroxyphenylmethyl)-3,14-dioxo-1,4,8-triazacyclotetradec-13-yl)-2-tert-butoxycarbonylamino-3-(4-fluorophenyl)-N-methylpropionamide” here?
A: 55%

Q: What does the source list for `CN(C(=O)[C@@H](N)Cc1ccc(F)cc1)[C@H]1CCCCNC(=O)CCNC(=O)[C@H](Cc2ccc(O)c(C(C)(C)C)c2)NC1=O` [Example 1, (2S-(2S,13S))-2-amino-N-(2-(3-tert-butyl-4-hydroxyphenylmethyl)-1,4,8-triaza-3,7,14-trioxocyclotetradec-13-yl)-3-(4-fluorophenyl)-N-methylpropionamide] (H-[Phe(4-F)][NMeK][Tyr(3-tBu)][βAla]; lactam 2-C)?
A: IC50 (motilin receptors): 1.2 nM; Kb [3]: 1 nM

Q: With `CN(C(=O)[C@H](Cc1ccc(F)cc1)NC(=O)OC(C)(C)C)[C@H]1CCCCNC(=O)CCNC(=O)[C@H](Cc2ccc(O)c(C(C)(C)C)c2)NC1=O` as the molecule, how does the ring closure, yield of all isomers ([1]; from CN(C(=O)[C@H](Cc1ccc(F)cc1)NC(=O)OC(C)(C)C)[C@@H](CCCCN)C(=O)N[C@@H](Cc1ccc(O)c(C(C)(C)C)c1)C(=O)NCCC(=O)O, DMF, 10.1 mM, 18.0 h) read?
A: 69%

Q: Which ring closure, isolated yield ([2]; 14-membered ring, BOP/pyridine, DMF/pyridine 1:1, 10.5 mM) does the source give for “(2S-(2S,13S))-2-(tert-butoxycarbonylamino)-N-(2-(3-tert-butyl-4-hydroxyphenylmethyl)-8-methyl-1,4, 8-triaza-3,7,14-trioxocyclotetradec-13-yl)-3-(4-fluorophenyl)-N-methylpropionamide” here?
A: 36%

Q: Which ring closure, yield of all isomers ([1]; from CC(=O)N(CCCN)CCCC[C@@H](C(=O)N[C@@H](Cc1ccc(O)c(C(C)(C)C)c1)C(=O)O)N(C)C(=O)[C@H](Cc1ccc(F)cc1)NC(=O)OC(C)(C)C, DMF, 9.87 mM, 18.0 h) does the source give for `CC(=O)N1CCCC[C@H](N(C)C(=O)[C@H](Cc2ccc(F)cc2)NC(=O)OC(C)(C)C)C(=O)N[C@@H](Cc2ccc(O)c(C(C)(C)C)c2)C(=O)NCCC1` here?
A: 55%

Q: With `CN1CCC[C@H](N(C)C(=O)[C@H](Cc2ccc(F)cc2)NC(=O)OC(C)(C)C)C(=O)N[C@@H](Cc2ccc(O)c(C(C)(C)C)c2)C(=O)NCCCC1=O` as the molecule, how does the ring closure, yield of all isomers ([1]; from CNCCC[C@@H](C(=O)N[C@@H](Cc1ccc(O)c(C(C)(C)C)c1)C(=O)NCCCC(=O)O)N(C)C(=O)[C@H](Cc1ccc(F)cc1)NC(=O)OC(C)(C)C, DMF, 9.93 mM, 12.0 h, 2 steps) read?
A: 60%

Q: For “(2S-(2S,12S))-2-tert-butoxycarbonylamino-N-(2-(3-tert-butyl-4-hydroxyphenylmethyl)-1,4,8-triaza-3,7,13-trioxocyclotridec-12-yl)-3-(4-fluorophenyl)-N-methylpropionamide”, which ring closure, isolated yield ([2]; 13-membered ring, BOP/pyridine, DMF/pyridine 1:1, 10.75 mM, 2 steps) is on record?
A: 60%

Q: Which ring closure, yield of all isomers ([1]; from CN(C(=O)[C@H](Cc1ccc(F)cc1)NC(=O)OC(C)(C)C)[C@@H](CCCCN)C(=O)N[C@@H](Cc1ccc(O)c(C(C)(C)C)c1)C(=O)NCCCC(=O)O, DMF, 10.1 mM, 16.0 h) does the source give for `CN(C(=O)[C@H](Cc1ccc(F)cc1)NC(=O)OC(C)(C)C)[C@H]1CCCCNC(=O)CCCNC(=O)[C@H](Cc2ccc(O)c(C(C)(C)C)c2)NC1=O` here?
A: 82%

Q: With `CN(C(=O)[C@H](Cc1ccc(F)cc1)NC(=O)OC(C)(C)C)[C@H]1CCCCNC(=O)CNC(=O)[C@H](Cc2ccc(O)c(C(C)(C)C)c2)NC1=O` as the molecule, how does the ring closure, yield of all isomers ([1]; from CN(C(=O)[C@H](Cc1ccc(F)cc1)NC(=O)OC(C)(C)C)[C@@H](CCCCN)C(=O)N[C@@H](Cc1ccc(O)c(C(C)(C)C)c1)C(=O)NCC(=O)O, DMF, 10.75 mM, 23.0 h, 2 steps) read?
A: 60%

Q: For `CC(C)(C)c1cc(C[C@@H]2NC(=O)[C@@H](N)CCCCNC(=O)CCNC2=O)ccc1O`, which ring closure, yield of all isomers ([1]; from CC(C)(C)OC(=O)CCNC(=O)[C@H](Cc1ccc(O)c(C(C)(C)C)c1)NC(=O)[C@H](CCCCNC(=O)OC(C)(C)C)NC(=O)OCc1ccccc1, acetonitrile, 10.2 mM, 21.0 h, 3 steps) is on record?
A: 90%

Q: For `CN(C(=O)[C@H](Cc1ccc(F)cc1)NC(=O)OC(C)(C)C)[C@H]1CCCCNC(=O)CCNC(=O)[C@H](Cc2ccc(O)c(C(C)(C)C)c2)N(C)C1=O`, which ring closure, yield of all isomers ([1]; from CN(C(=O)[C@H](Cc1ccc(F)cc1)NC(=O)OC(C)(C)C)[C@@H](CCCCN)C(=O)N(C)[C@@H](Cc1ccc(O)c(C(C)(C)C)c1)C(=O)NCCC(=O)O, DMF, 10.0 mM, 26.0 h, 2 steps) is on record?
A: 36%

Q: For “(2S-(2S,13S))-2-tert-butoxycarbonylamino-N-(2-(3-tert-butyl-4-hydroxyphenylmethyl)-1,4,8-triaza-3,7,14-trioxocyclotetradec-13-yl)-3-(4-fluorophenyl)-N-methylpropionamide”, which ring closure, isolated yield ([2]; 14-membered ring, BOP/pyridine, DMF/pyridine 1:1, 10.1 mM) is on record?
A: 69%

Q: Which ring closure, isolated yield ([2]; 15-membered ring, BOP/pyridine, DMF/pyridine 1:1, 10.1 mM) does the source give for “(2S-(2S,14S))-2-(tert-butoxycarbonylamino)-N-(2-(3-tert-butyl-4-hydroxyphenylmethyl)-1,4,9-triaza-3,8,15-trioxocyclopentadec-14-yl)-3-(4-fluorophenyl)-N-methylpropionamide” here?
A: 82%

Q: Which ring closure, yield of all isomers ([1]; from CN(C(=O)[C@H](Cc1ccccc1)NC(=O)OCc1ccccc1)[C@@H](CCCCN)C(=O)N[C@@H](Cc1ccc(O)c(C(C)(C)C)c1)C(=O)NCCC(=O)O, DMF, 9.91 mM, 2 steps) does the source give for `CN(C(=O)[C@H](Cc1ccccc1)NC(=O)OCc1ccccc1)[C@H]1CCCCNC(=O)CCNC(=O)[C@H](Cc2ccc(O)c(C(C)(C)C)c2)NC1=O` here?
A: 48%

Q: With “(2S-(2S,13S))-2-tert-butoxycarbonylamino-N-(2-(3-tert-butyl-4-hydroxyphenylmethyl)-9-methyl-1,4,9-triaza-3,8,14-trioxocyclotetradec-13-yl)-3-(4-fluorophenyl)-N-methylpropionamide” as the molecule, how does the ring closure, isolated yield [2, 4] read?
A: 60%

Q: For `CC(C)(C)c1cc(C[C@@H]2NC(=O)C(N)CCCCNC(=O)CCNC2=O)ccc1O` (stereo partly drawn), which ring closure, isolated yield ([2]; from Z-Lys-Tyr(3-tBu)-bAla-OH?, 14-membered ring, BOP/pyridine, MeCN/pyridine 1:1, 10.2 mM, 3 steps) is on record?
A: 90%

Q: For `CN1CCC[C@H](N(C)C(=O)[C@@H](N)Cc2ccc(F)cc2)C(=O)N[C@@H](Cc2ccc(O)c(C(C)(C)C)c2)C(=O)NCCCC1=O` [Example 9, (2S-(2S,13S))-2-amino-N-(2-(3-tert-butyl-4-hydroxyphenylmethyl)-9,N-dimethyl-1,4,9-triaza-3,8,14-trioxocyclotetradec-13-yl)-3-(4-fluorophenyl)propionamide], which IC50 (motilin receptors) is on record?
A: 5.3 nM

Q: Which ring closure, yield of all isomers ([1]; from CN(CCC(=O)O)C(=O)[C@H](Cc1ccc(O)c(C(C)(C)C)c1)NC(=O)[C@H](CCCCN)N(C)C(=O)[C@H](Cc1ccc(F)cc1)NC(=O)OC(C)(C)C, DMF, 10.3 mM, 16.0 h) does the source give for `CN1CCC(=O)NCCCC[C@H](N(C)C(=O)[C@H](Cc2ccc(F)cc2)NC(=O)OC(C)(C)C)C(=O)N[C@@H](Cc2ccc(O)c(C(C)(C)C)c2)C1=O` here?
A: 60%

Q: For “(2S-(2S,13S))-2-tert-butoxycarbonylamino-N-(2-(3-tert-butyl-4-hydroxyphenylmethyl)-1-methyl-1,4,8-triaza-3,7,14-trioxocyclotetradec-13-yl)-3-(4-fluorophenyl)-N-methylpropionamide”, which ring closure, isolated yield ([2]; 14-membered ring, BOP/pyridine, DMF/pyridine 1:1, 10.0 mM, 2 steps) is on record?
A: 36%

Q: With “2S-(2S,13S))-N-(8-acetyl-2-(3-tert-butyl-4-hydroxyphenylmethyl)-3,14-dioxo-1,4,8-triazacyclotetradec-13-yl)-2-tert-butoxycarbonylamino-3-(4-fluorophenyl)-N-methylpropionamide” as the molecule, how does the ring closure, isolated yield ([2]; 14-membered ring, BOP/pyridine, DMF/pyridine 1:1, 9.9 mM) read?
A: 55%

Q: With “(2S-(2S,13S))-2-benzyloxycarbonylamino-N-(2-(3-tert-butyl-4-hydroxyphenylmethyl)-1,4,8-triaza-3,7,14-trioxocyclotetradec-13-yl)-3-phenyl-N-methylpropionamide” as the molecule, how does the ring closure, isolated yield [2, 4] read?
A: 48%

Q: Which ring closure, isolated yield ([2]; 14-membered ring, BOP/pyridine, DMF/pyridine 1:1, 10.3 mM) does the source give for “(2S-(2S,13S))-2-tert-butoxycarbonylamino-N-(2-(3-tert-butyl-4-hydroxyphenylmethyl)-4-methyl-1,4,8-triaza-3,7,14-trioxocyclotetradec-13-yl)-3-(4-fluorophenyl)-N-methylpropionamide” here?
A: 60%
